Assay results as given in patent publication US20250163038A1, “CBL-B MODULATORS AND USES THEREOF” (Nimbus Clio, Inc., priority 2021, published 2025).

Tests used:
[1] = target: Recombinant human Cbl-b (aa 36-427) (Homo sapiens, UniProt Q13191); experiment: Cbl-b Biochemical Assay (TR-FRET); conditions: read-out: TR-FRET hCbl-b IC50
[2] = tested on: Jurkat (clone E6-1) cells with NFAT luciferase reporter; experiment: Jurkat reporter assay (NFAT Luciferase); format: cell-based; conditions: Homo sapiens; Jurkat NFAT luciferase reporter cells, anti-CD3 stimulation, 6 hr; read-out: Jurkat NFAT EC50
[3] = target: T1, Recombinant human c-Cbl (aa 47-435) (Homo sapiens, UniProt P22681); experiment: c-Cbl Biochemical Assay (TR-FRET); conditions: hc-Cbl Biochemical Assay (TR-FRET); read-out: TR-FRET hcCbl IC50
T1 sequence (P22681 47-435): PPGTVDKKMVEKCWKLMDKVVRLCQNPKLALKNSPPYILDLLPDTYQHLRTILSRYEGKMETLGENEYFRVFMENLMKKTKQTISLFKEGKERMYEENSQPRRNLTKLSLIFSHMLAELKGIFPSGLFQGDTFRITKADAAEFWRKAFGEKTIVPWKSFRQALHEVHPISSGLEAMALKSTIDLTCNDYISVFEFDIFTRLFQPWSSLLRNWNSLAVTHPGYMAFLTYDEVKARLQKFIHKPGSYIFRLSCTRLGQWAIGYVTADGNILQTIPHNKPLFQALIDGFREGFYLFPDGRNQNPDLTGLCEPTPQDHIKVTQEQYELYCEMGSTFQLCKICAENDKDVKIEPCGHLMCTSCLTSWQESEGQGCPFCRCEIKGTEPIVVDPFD

Chain of Recombinant human Cbl-b (aa 36-427) (Q13191 36-427): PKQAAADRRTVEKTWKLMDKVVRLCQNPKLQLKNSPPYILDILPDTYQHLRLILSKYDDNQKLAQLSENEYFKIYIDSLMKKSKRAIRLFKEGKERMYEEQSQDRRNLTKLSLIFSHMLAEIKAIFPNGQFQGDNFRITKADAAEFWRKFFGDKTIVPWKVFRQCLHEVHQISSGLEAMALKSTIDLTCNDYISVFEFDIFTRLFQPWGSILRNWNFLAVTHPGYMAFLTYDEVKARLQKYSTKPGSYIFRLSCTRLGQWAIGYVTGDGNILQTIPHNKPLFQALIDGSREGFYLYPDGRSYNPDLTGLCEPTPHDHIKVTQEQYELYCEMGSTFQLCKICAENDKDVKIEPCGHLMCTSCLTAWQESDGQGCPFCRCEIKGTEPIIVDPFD

SMILES: COC(=O)c1cc(C)c2oc(-c3cc(-c4ccc(F)cc4-c4nncn4C)cc(C4CC4)n3)nc2c1 [AES-3, Methyl 2-{6-cyclopropyl-4-[4-fluoro-2-(4-methyl-1,2,4-triazol-3-yl)phenyl]pyridin-2-yl}-7-methyl-1,3-benzoxazole-5-carboxylate]
- IC50 [1]: 1 to 10 µM
- EC50 [2]: 10 to 50 µM

SMILES: Cn1cnnc1-c1cc(F)ccc1-c1cccc(-c2nc3cc(C(=O)O)cc(C(F)(F)F)c3o2)c1 [DB-1, 2-(4′-Fluoro-2′-(4-methyl-4H-1,2,4-triazol-3-yl)-[1,1′-biphenyl]-3-yl)-7-(trifluoromethyl)benzo[d]oxazole-5-carboxylic Acid]
- IC50 [1]: 10 to 50 µM
- EC50 [2]: 1 to 10 µM

SMILES: Cn1cnnc1CC1(c2cccc(-c3nc4cc(C(=O)N5CCC6(CC6)C5)cc(C(F)(F)F)c4[nH]3)c2)COC1 [ABJ-2, (2-(3-(3-((4-Methyl-4H-1,2,4-triazol-3-yl)methyl)oxetan-3-yl)phenyl)-7-(trifluoromethyl)-1H-benzo[d]imidazol-5-yl)(5-azaspiro[2.4]heptan-5-yl)methanone]
- IC50 [1]: 10 to 50 µM
- IC50 [3]: 10 to 50 µM

SMILES: COC(=O)c1cc(C(F)(F)F)c2oc(-c3cccc([C@]4(c5nncn5C)C[C@@H](C)C4)c3)nc2c1 [ADC-3, Methyl 2-(3-((1s,3s)-3-methyl-1-(4-methyl-4H-1,2,4-triazol-3-yl)cyclobutyl)phenyl)-7-(trifluoromethyl)benzo[d]oxazole-5-carboxylate]
- IC50 [1]: 1 to 10 µM
- IC50 [3]: 10 to 50 µM

SMILES: Cn1cnnc1CC1(c2cccc(-c3cc(C4CC4)c[nH]c3=O)c2)COC1 [ABX-3, 5-Cyclopropyl-3-(3-(3-((4-methyl-4H-1,2,4-triazol-3-yl)methyl)oxetan-3-yl)phenyl)pyridin-2(1H)-one]
- IC50 [1]: 10 to 50 µM
- IC50 [3]: 10 to 50 µM

SMILES: Cn1cnnc1-c1ccccc1-c1cccc(-c2nc3cc(CN(C(=O)OC(C)(C)C)[C@@H]4CCC[C@H]4O)cc(C(F)(F)F)c3o2)c1 [Example M-5, tert-Butyl ((1R,2R)-2-hydroxycyclopentyl)((2-(2′-(4-methyl-4H-1,2,4-triazol-3-yl)-[1,1′-biphenyl]-3-yl)-7-(trifluoromethyl)benzo[d]oxazol-5-yl)methyl)carbamate]
- IC50 [1]: 0.2 to 1 µM
- IC50 [3]: 10 to 50 µM

SMILES: Cn1cnnc1CC1(c2cccc(-c3nc4cc(C(=O)N5CC[C@@H](O)C5)cc(C(F)(F)F)c4[nH]3)c2)COC1 [ABS-2, (R)-(3-Hydroxypyrrolidin-1-yl)(2-(3-(3-((4-methyl-4H-1,2,4-triazol-3-yl)methyl)oxetan-3-yl)phenyl)-7-(trifluoromethyl)-1H-benzo[d]imidazol-5-yl)methanone]
- IC50 [1]: 10 to 50 µM
- IC50 [3]: 10 to 50 µM

SMILES: Cn1cnnc1-c1cc(F)ccc1-c1cccc(-c2nc3cc(CNCC(C)(C)O)ccc3[nH]2)c1 [BX-2, 1-(((2-(4′-Fluoro-2′-(4-methyl-4H-1,2,4-triazol-3-yl)-[1,1′-biphenyl]-3-yl)-1H-benzo[d]imidazol-5-yl)methyl)amino)-2-methylpropan-2-ol]
- IC50 [1]: 0.2 to 1 µM
- IC50 [3]: 10 to 50 µM

SMILES: Cn1cnnc1-c1cc(F)ccc1-c1cccc(-c2nc3cc(CNC4(CO)COC4)cc(C(F)(F)F)c3[nH]2)c1 [BS-1, (3-(((2-(4′-Fluoro-2′-(4-methyl-4H-1,2,4-triazol-3-yl)-[1,1′-biphenyl]-3-yl)-7-(trifluoromethyl)-1H-benzo[d]imidazol-5-yl)methyl)amino)oxetan-3-yl)methanol]
- IC50 [1]: < 0.2 µM
- IC50 [3]: 1 to 10 µM

SMILES: Cn1cnnc1-c1cc(F)ccc1-c1cccc(-c2nc3cc(CO)ccc3o2)c1 [AJ-3, (2-(4′-Fluoro-2′-(4-methyl-4H-1,2,4-triazol-3-yl)-[1,1′-biphenyl]-3-yl)benzo[d]oxazol-5-yl)methanol]
- IC50 [1]: 10 to 50 µM
- IC50 [3]: 10 to 50 µM

SMILES: Cn1cnnc1CC1(c2cccc(-c3nc4cccc(C(F)(F)F)n4n3)c2)COC1 [ABC-4, 2-(3-(3-((4-Methyl-4H-1,2,4-triazol-3-yl)methyl)oxetan-3-yl)phenyl)-5-(trifluoromethyl)-[1,2,4]triazolo[1,5-a]pyridine]
- IC50 [1]: 10 to 50 µM
- IC50 [3]: 10 to 50 µM

SMILES: Cn1cnnc1-c1cc(F)ccc1-c1cccc(-c2nc3cccc(C(F)(F)F)c3o2)c1 [Example S-1, 2-(4′-Fluoro-2′-(4-methyl-4H-1,2,4-triazol-3-yl)-[1,1′-biphenyl]-3-yl)-7-(trifluoromethyl)benzo[d]oxazole]
- IC50 [1]: 0.2 to 1 µM
- IC50 [3]: 1 to 10 µM

SMILES: COC(=O)c1[nH]c(=O)c(-c2cccc(-c3ccccc3-c3nncn3C)c2)cc1C(F)(F)F [CH-2, Methyl 5-(2′-(4-methyl-4H-1,2,4-triazol-3-yl)-[1,1′-biphenyl]-3-yl)-6-oxo-3-(trifluoromethyl)-1,6-dihydropyridine-2-carboxylate]
- IC50 [1]: 10 to 50 µM
- IC50 [3]: 10 to 50 µM

SMILES: CCNc1cc(-c2c(-c3nncn3C)cnn2C)cc(-c2nc3cc(CN4CCC5(CC5)C4)cc(C(F)(F)F)c3o2)n1 [AAC-5, 6-(5-{5-Azaspiro[2.4]heptan-5-ylmethyl}-7-(trifluoromethyl)-1,3-benzoxazol-2-yl)-N-ethyl-4-[2-methyl-4-(4-methyl-1,2,4-triazol-3-yl)pyrazol-3-yl]pyridin-2-amine]
- IC50 [1]: 1 to 10 µM
- IC50 [3]: 10 to 50 µM

SMILES: Cn1cnnc1-c1ccccc1-c1cccc(-c2nc3ccc(N)c(C(F)(F)F)c3[nH]2)c1 [BE-2, 2-(2′-(4-Methyl-4H-1,2,4-triazol-3-yl)-[1,1′-biphenyl]-3-yl)-7-(trifluoromethyl)-1H-benzo[d]imidazol-6-amine]
- IC50 [1]: 10 to 50 µM
- IC50 [3]: 10 to 50 µM

SMILES: Cn1cnnc1CC1(c2cccc(-c3nc4ccc(Br)c(C(F)(F)F)c4[nH]3)c2)COC1 [BA-1, 6-Bromo-2-(3-(3-((4-methyl-4H-1,2,4-triazol-3-yl)methyl)oxetan-3-yl)phenyl)-7-(trifluoromethyl)-1H-benzo[d]imidazole]
- IC50 [1]: 1 to 10 µM
- IC50 [3]: 10 to 50 µM

SMILES: Cn1cnnc1-c1cc(F)ccc1-c1cccc(-c2nc3cc(NCCC4CCC4)cc(C(F)(F)F)c3o2)c1 [HU-1, N-(2-Cyclobutylethyl)-2-(4′-fluoro-2′-(4-methyl-4H-1,2,4-triazol-3-yl)-[1,1′-biphenyl]-3-yl)-7-(trifluoromethyl)benzo[d]oxazol-5-amine]
- IC50 [1]: 1 to 10 µM
- EC50 [2]: 10 to 50 µM

SMILES: Cn1cnnc1CC1(c2cccc(-c3nc4cccc(C(F)(F)F)c4s3)c2)COC1 [ABT-2, 2-(3-(3-((4-Methyl-4H-1,2,4-triazol-3-yl)methyl)oxetan-3-yl)phenyl)-7-(trifluoromethyl)benzo[d]thiazole]
- IC50 [1]: 1 to 10 µM
- IC50 [3]: 10 to 50 µM

SMILES: Cn1cnnc1[C@]1(c2cccc(-c3nc4cc(CO)cc(C(F)(F)F)c4o3)c2)C[C@H](C)C1 [ADD-1, (2-(3-((1s,3s)-3-Methyl-1-(4-methyl-4H-1,2,4-triazol-3-yl)cyclobutyl)phenyl)-7-(trifluoromethyl)benzo[d]oxazol-5-yl)methanol]
- IC50 [1]: 0.2 to 1 µM
- IC50 [3]: 1 to 10 µM

SMILES: Cn1cnnc1CC1(c2cccc(-c3cc(C(F)(F)F)cn(C)c3=O)c2)COC1 [CF-2, 1-Methyl-3-(3-(3-((4-methyl-4H-1,2,4-triazol-3-yl)methyl)oxetan-3-yl)phenyl)-5-(trifluoromethyl)pyridin-2(1H)-one]
- IC50 [1]: 10 to 50 µM
- IC50 [3]: 10 to 50 µM

SMILES: Cn1cnnc1-c1ccccc1-c1cccc(-c2nc3cc(C(=O)O)cc(C(F)(F)F)c3o2)c1 [Example H-1, 2-(2′-(4-Methyl-4H-1,2,4-triazol-3-yl)-[1,1′-biphenyl]-3-yl)-7-(trifluoromethyl)benzo[d]oxazole-5-carboxylic Acid]
- IC50 [1]: 10 to 50 µM
- IC50 [3]: 10 to 50 µM

SMILES: COC(=O)c1ccc2oc(-c3cccc(-c4ccc(Cl)cc4-c4nncn4C)c3)nc2c1 [ADJ-2, Methyl 2-[4′-chloro-2′-(4-methyl-1,2,4-triazol-3-yl)-[1,1′-biphenyl]-3-yl]-1,3-benzoxazole-5-carboxylate]
- IC50 [1]: 1 to 10 µM
- IC50 [3]: 1 to 10 µM

SMILES: Cn1cnnc1CC1(c2cccc(-c3nc4cc(Br)cc(C(F)(F)F)c4o3)c2)COC1 [AAK-1, 5-Bromo-2-(3-(3-((4-methyl-4H-1,2,4-triazol-3-yl)methyl)oxetan-3-yl)phenyl)-7-(trifluoromethyl)benzo[d]oxazole]
- IC50 [1]: 0.2 to 1 µM
- IC50 [3]: 10 to 50 µM

SMILES: Cn1cnnc1CC1(c2cccc(-c3nc4cccc(C(F)(F)F)c4[nH]3)c2)COC1 [ABB-2, 2-(3-(3-((4-Methyl-4H-1,2,4-triazol-3-yl)methyl)oxetan-3-yl)phenyl)-7-(trifluoromethyl)-1H-benzo[d]imidazole]
- IC50 [1]: 10 to 50 µM
- IC50 [3]: 10 to 50 µM

SMILES: Cn1cnnc1-c1cc(F)ccc1-c1cccc(-c2nc3ccccc3o2)c1 [AR-2, 2-(4′-Fluoro-2′-(4-methyl-4H-1,2,4-triazol-3-yl)-[1,1′-biphenyl]-3-yl)benzo[d]oxazole]
- IC50 [1]: 10 to 50 µM
- IC50 [3]: 10 to 50 µM

SMILES: Cn1cnnc1CC1(c2cccc(-c3nc4cc(C(=O)N5CC[C@H](O)C5)cc(C(F)(F)F)c4[nH]3)c2)COC1 [ABR-2, (S)-(3-Hydroxypyrrolidin-1-yl)(2-(3-(3-((4-methyl-4H-1,2,4-triazol-3-yl)methyl)oxetan-3-yl)phenyl)-7-(trifluoromethyl)-1H-benzo[d]imidazol-5-yl)methanone]
- IC50 [1]: < 0.2 µM
- IC50 [3]: 1 to 10 µM

SMILES: COC(OC)c1ccc2oc(-c3cccc(-c4ccc(F)cc4-c4nncn4C)c3)nc2c1 [AT-1, 5-(Dimethoxymethyl)-2-(4′-fluoro-2′-(4-methyl-4H-1,2,4-triazol-3-yl)-[1,1′-biphenyl]-3-yl)benzo[d]oxazole]
- IC50 [1]: 10 to 50 µM
- IC50 [3]: 10 to 50 µM
